In patent publication US5616716A, “(3-(5-ethoxypyridin)yl)-alkenyl 1 amine compounds” (priority 1996, dated 1997):
pEC50, pKi: −log10 of the molar value.

Tests used:
nicotinic receptors = test: Binding of compounds to relevant receptor sites (inhibition of L-[^3 H]nicotine binding, rat brain membranes); parameters: species or system rat (Sprague-Dawley); details: inhibition of L-[^3 H]nicotine (10 nM) binding
Protocol: Rats (Sprague-Dawley) were maintained on a 12 hour light/dark cycle and were allowed free access to water and food supplied by Wayne Lab Blox, Madison, Wis. Animals used in the present studies weighed 200 to 250 g. Brain membrane preparations were obtained from brain tissue of either males or females.
Rats were killed by decapitation following anesthesia with 70% CO2. Brains were removed and placed on an ice-cold platform.
The incubation buffer was Krebs-Ringers HEPES containing 200 mM TRIS buffer, pH 7.5. The binding reaction was terminated by filtration of the protein containing bound ligand onto glass fiber filters (Micro Filtration Systems) that had been soaked in buffer containing 0.5 percent polyethyleneimine. Filtration vacuum was -50 to -100 torr. Each filter was washed five times with 3 ml of ice-cold buffer. […] Nonspecific binding was determined by inclusion of 10 uM nonradioactive nicotine in the incubations.
The inhibition of L-[^3 H]nicotine binding by test compounds was determined by including one of eight different concentrations of the test compound in the incubation.

[1] = target: CNS nicotinic receptors (thalamic synaptosomes); test: Determination of ion flux from thalamic synaptosomes (^86 Rb+ efflux; receptor activation); format: biochemical, rat; details: for Receptor Activation Emax: percent of Emax for tetramethylammonium
Protocol: Determination of ion flux from thalamic synaptosomes
Rat brains were dissected and midbrain (thalamus and mesencephalon) removed. The midbrain was then placed into a tube on ice, homogenized, and centrifuged at 2800 rpm for 10 minutes. The supernatant was collected and centrifuged for another 20 minutes at 9650 rpm The resulting pellet was resuspended by trituration in 700 ul ice cold perfusion buffer. Synaptosomes were then loaded with ^86 Rb+ Ion efflux was determined using the methods of Marks et al., J. Pharmacol. Exp. Ther., Vol. 264, pp. 427-436 (1993). Total efflux was determined by subtraction of basal release from release at stimulation (total peak release). The ratio of the peak to baseline (Rp) was calculated for each concentration. A tetramethylammonium control (i.e., a full agonist to the receptor of interest) is used in each assay to compare each agonist's ability to stimulate rubidium efflux to the control. Emax values are reported as a percent of Emax for tetramethylammonium.

[2] = test system: dopamine release from striatal synaptosomes; test: Determination of dopamine release (striatal synaptosomes); format: biochemical, rat (Sprague-Dawley); details: rat striatal synaptosomes; for Dopamine Release Emax: percentage of release obtained with (S)-(-)-nicotine
Protocol: Determination of Dopamine Release
Dopamine release was measured by preparing synaptosomes from the striatal area of rat brain obtained from Sprague-Dawley rats generally according to the procedures set forth by Nagy et al. J. Neurochem., Vol. 43, pp. 1114-1123 (1984). Striata from 4 rats were homogenized in 2 ml of 0.32M sucrose buffered with 5 mM HEPES (pH 7.5), using a glass-Teflon tissue grinder. The homogenate was diluted to 5 ml with additional homogenization solution and centrifuged at 1,000 ×g for 10 min. This procedure was repeated on the new pellet and the resulting supernatant was centrifuged at 12,000 ×g for 20 min. A 3 layer discontinuous Percoll gradient consisting of 16 percent, 10 percent and 7.5 percent Percoil in HEPES-buffered sucrose was made with the final pellet dispersed in the top layer. After centrifugation at 15,000 ×g for 20 min., the synaptosomes were recovered above the 16 percent layer with a Pasteur pipette, diluted with 8 ml of perfusion buffer (128 mM NaCl, 2.4 mM KCl, 3.2 mM CaCl2, 1.2 KH2 PO4, 1.2 mM MgSO4, 25 mM HEPES pH 7.4, 10 mM dextrose, 1 mM ascorbate, 0.01 mM pargyline), and centrifuged at 15,000 ×g for 20 min. The new pellet was collected and re-suspended in perfusion buffer. The synaptosome suspension was incubated for 10 min. at 37 ° C. [^3 H]-Dopamine (Amersham, 40-60 Ci/mmol) was added to the suspension to give a final concentration of 0.1 uM, and the suspension was incubated for another 5 min. Using this method, 30 to 90 percent of the dopamine was taken up into the synaptosomes, as determined by scintillation counting following filtration through glass fiber filters soaked with 0.5 percent polyethyleneimine. A continuous perfusion system was used to monitor release following exposure to each ligand. Synaptosomes were loaded onto glass fiber filters (Gelman type A/E). Perfusion buffer was dripped onto the filters (0.2-0.3 ml/min.) and pulled through the filters with a peristaltic pump. Synaptosomes were washed with perfusion buffer for a minimum of 20 min. before addition of the ligand. After the addition of 0.2 ml of a solution containing various concentrations of ligand, the perfusate was collected into scintillation vials at 1 min. intervals and the dopamine released was quantified by scintillation counting. Peaks of radioactivity released above background were summed and the average basal release during that time was subtracted from the total. Release was expressed as a percentage of release obtained with an equal concentration of(S)--(-)--nicotine.

[3] = target: T1, ganglionic-type neuronal nicotinic receptors (PC12) (Rattus norvegicus, UniProt P04757+P12392); test: cell-based; details: PC12, ^86 Rb^+ efflux, percentage of maximal activation induced by (S)-(-)-nicotine
T1 construct: Ganglionic effects were established on the rat pheochromocytoma clonal line PC12; endogenous in cells; host or cells: PC12 (rat pheochromocytoma)
T1 sequence (P04757 26-499): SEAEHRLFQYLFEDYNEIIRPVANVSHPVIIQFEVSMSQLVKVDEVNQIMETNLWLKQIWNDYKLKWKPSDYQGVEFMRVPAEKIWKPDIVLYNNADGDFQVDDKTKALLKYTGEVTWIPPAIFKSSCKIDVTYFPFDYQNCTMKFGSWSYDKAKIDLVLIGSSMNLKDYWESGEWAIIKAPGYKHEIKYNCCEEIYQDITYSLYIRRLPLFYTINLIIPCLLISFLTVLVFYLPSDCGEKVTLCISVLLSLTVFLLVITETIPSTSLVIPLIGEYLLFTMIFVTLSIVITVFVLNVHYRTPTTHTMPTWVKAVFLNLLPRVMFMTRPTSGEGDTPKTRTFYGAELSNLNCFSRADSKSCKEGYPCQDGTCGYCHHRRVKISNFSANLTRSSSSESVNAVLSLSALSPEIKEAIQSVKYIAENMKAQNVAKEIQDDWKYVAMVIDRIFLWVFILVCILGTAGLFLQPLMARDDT
T1 sequence (P12392 21-495): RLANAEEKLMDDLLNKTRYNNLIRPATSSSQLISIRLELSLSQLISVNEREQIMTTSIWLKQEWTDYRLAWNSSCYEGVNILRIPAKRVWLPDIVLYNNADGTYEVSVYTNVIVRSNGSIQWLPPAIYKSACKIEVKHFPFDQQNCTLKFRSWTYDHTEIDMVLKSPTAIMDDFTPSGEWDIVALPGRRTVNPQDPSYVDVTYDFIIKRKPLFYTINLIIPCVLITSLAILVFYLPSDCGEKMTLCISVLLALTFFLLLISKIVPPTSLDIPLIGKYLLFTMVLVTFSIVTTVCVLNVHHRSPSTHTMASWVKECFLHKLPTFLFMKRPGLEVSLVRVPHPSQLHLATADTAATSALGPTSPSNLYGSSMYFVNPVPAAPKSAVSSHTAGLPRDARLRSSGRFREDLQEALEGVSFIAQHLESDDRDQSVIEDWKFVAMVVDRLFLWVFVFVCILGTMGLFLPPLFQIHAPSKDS
From the text: Determination of Interaction with Ganglia
Ganglionic effects were established on the rat pheochromocytoma clonal line PC12, which is a continuous clonal cell line of neural crest origin derived from a tumor of the rat adrenal medulla expressing ganglionic-typeneuronal nicotinic receptors (see Whiting et al., Nature, Vol. 327, pp. 515-518 (1987); Lukas, J. Pharmacol. Exp. Ther., Vol. 251, pp. 175-182 (1989); Whiting et al., Mol. Brain Res., Vol. 10, pp. 61-70 (1990)). Discussion concerning the heterogeneity of nicotinic receptors subtypes is set forth in Lukas et al. Internatl. Review Neurobiol., Vol. 34, pp. 25-130 (1992). Acetylcholine nicotinic receptors expressed in rat ganglia share a very high degree of homology with their human counterparts. See, Fomasari et al., Neurosci. Lett., Vol. 111, pp. 351-356 (1990) and Chini et al., Proc. Natl. Acad. Sci. USA, Vol. 89, pp. 1572-1576 (1992 ). Both clonal cell lines described above were maintained in proliferative growth phase according to routine protocols (Bencherif et al., Mol. Cell, Neurosci., Vol. 2, pp. 52-65, (1991 ) and Bencheft et al., J. Pharmacol. Exp. Ther., Vol. 257, pp. 946-953 (1991)). Intact cells on dishes were used for functional studies. Routinely, sample aliquots were reserved for determination of protein concentration using the method of Bradford, Anal. Biochem., Vol. 72, pp. 248-254 (1976) with bovine serum albumin as the standard.
(§1) Nicotinic acetylcholine receptor (nAChR) function was assayed using ^86 Rb^+ efflux according to a method described by Lukas et al., Anal. Biochem., Vol. 175, pp. 212-218 (1.988). […] The medium was removed and ^86 Rb^+ was quantitated using Cerenkov detection (see Lukas et al., Anal. Biochem., Vol. 175, pp. 212-218 (1988)). Specific ion efflux was determined as the difference in isotope efflux between total and non-specific efflux samples. Dose-response curves were plotted and the concentration resulting in half maximal activation of specific ion flux through nicotinic receptors determined for human muscle and rat ganglionic preparations (EC50).

[4] = target: T2, muscle-like nicotinic receptors (TE671/RD) (Homo sapiens, UniProt P02708+P07510+Q07001); test: cell-based; details: ^86 Rb^+ efflux, read-out: Muscle Effect EC50
T2 construct: these cells express muscle-like nicotinic receptors; endogenous in cells; host or cells: TE671/RD (human embryonal rhabdomyosarcoma)
T2 sequence (Q07001 22-517): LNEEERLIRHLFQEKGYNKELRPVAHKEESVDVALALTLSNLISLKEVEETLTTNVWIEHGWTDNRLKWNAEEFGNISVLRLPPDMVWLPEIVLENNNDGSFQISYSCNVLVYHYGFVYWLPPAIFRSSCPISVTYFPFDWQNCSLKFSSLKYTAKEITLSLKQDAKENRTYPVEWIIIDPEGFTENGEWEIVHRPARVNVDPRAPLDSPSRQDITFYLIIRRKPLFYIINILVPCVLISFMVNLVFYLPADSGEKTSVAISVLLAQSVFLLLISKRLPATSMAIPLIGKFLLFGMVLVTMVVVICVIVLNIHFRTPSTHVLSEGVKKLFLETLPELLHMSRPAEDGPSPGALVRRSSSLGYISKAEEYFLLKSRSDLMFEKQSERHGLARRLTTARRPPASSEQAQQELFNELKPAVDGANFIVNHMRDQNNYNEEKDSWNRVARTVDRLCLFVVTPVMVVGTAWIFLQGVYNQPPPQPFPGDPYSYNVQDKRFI
T2 sequence (P07510 23-517): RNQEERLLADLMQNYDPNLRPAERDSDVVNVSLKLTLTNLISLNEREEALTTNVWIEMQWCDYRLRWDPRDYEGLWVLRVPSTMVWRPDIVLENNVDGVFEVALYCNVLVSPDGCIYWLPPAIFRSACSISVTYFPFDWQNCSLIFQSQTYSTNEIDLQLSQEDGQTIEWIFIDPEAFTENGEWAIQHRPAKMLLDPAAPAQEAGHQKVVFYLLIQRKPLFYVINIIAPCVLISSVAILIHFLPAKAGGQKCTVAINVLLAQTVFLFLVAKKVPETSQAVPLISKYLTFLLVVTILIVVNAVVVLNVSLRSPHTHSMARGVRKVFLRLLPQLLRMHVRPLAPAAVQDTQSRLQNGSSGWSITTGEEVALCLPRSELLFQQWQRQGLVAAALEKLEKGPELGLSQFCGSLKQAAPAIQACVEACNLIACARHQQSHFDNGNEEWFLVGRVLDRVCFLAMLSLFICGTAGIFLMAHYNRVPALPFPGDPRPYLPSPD
T2 sequence (P11230 24-501, further chain): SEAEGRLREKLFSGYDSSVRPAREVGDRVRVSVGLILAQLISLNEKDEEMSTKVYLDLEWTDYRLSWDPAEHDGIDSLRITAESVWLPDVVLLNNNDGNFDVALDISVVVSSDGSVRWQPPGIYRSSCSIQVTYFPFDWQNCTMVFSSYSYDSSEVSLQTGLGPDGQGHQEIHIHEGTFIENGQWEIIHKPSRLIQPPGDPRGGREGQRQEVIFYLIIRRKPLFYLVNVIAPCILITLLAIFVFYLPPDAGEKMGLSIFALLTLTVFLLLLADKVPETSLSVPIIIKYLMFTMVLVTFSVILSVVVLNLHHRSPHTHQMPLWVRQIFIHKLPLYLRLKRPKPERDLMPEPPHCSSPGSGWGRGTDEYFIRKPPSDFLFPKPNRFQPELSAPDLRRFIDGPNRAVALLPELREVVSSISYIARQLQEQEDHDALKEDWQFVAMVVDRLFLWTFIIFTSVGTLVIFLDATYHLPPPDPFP
T2 sequence (P02708 21-457): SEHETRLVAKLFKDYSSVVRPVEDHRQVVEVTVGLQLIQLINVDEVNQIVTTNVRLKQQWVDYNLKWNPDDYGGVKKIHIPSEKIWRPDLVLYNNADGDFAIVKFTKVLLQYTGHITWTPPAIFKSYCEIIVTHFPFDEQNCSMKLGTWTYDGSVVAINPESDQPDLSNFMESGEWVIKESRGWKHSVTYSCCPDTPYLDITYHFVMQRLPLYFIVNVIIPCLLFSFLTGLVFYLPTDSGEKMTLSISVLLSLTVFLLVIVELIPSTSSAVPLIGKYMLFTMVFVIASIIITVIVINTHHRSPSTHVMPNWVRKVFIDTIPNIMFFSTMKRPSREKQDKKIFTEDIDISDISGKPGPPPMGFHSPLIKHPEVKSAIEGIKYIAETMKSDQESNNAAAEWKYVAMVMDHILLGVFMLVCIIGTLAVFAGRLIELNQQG
From the text: Determination of Interaction with Muscle
Human muscle activation was established on the human clonal line TE671/RD which is derived from an embryonal rhabdomyosarcoma (Stratton et al., Carcinogen, Vol. 10, pp. 899-905 (1989)). As evidenced through pharmacological (Lukas, J. Pharmacol. Exp. Ther., Vol. 251, pp. 175-182 (1989)), electrophysiological (Oswald et al., Neurosci. Lett., Vol. 96, pp. 207-212 (1989)), and molecular biological studies (Luther et al., J. Neurosci., Vol. 9, pp. 1082-1096 (1989)) these cells express muscle-like nicotinic receptors. Nicotinic acetylcholine receptor (nAChR) function was assayed using ^86 Rb^+ efflux according to a method described by Lukas et al., Anal. Biochem., Vol. 175, pp. 212-218 (1988). Dose-response curves were plotted and the concentration resulting in half maximal activation of specific ion flux through nicotinic receptors determined for human muscle and rat ganglionic preparations (EC50).
as §1, with “Dose-response curves were plotted and the concentration resulting in half maximal activation of specific ion flux through nicotinic receptors determined for human muscle and rat ganglionic preparations (EC50).” left out

## CCOc1cncc(/C=C/CCNC)c1 [Sample No. 1, (E)-N-methyl-4-[3-(5-ethoxypyridin)yl]-3-buten-1-amine]
Nicotinic receptors
  pKi: 8.05
[1]
  pEC50: 6.57
  Receptor Activation Emax: 67%
[2]
  pEC50: 6.54
  Dopamine Release Emax: 124%
[3]; PC-12, read-out: Ganglion Effect Emax
  Emax: 0%

## CNCC/C=C/c1cncc(OC)c1 [Sample No. 3, (E)-N-methyl-4-[3-(5-methoxypyridin)yl]-3-buten-1-amine]
Nicotinic receptors
  pKi: 8.15
[1]
  pEC50: 6.33
  Receptor Activation Emax: 62%
[2]
  pEC50: 5.63
  Dopamine Release Emax: 106%
[3]
  Ganglion Effect Emax: 0%

## CNCC/C=C/c1cccnc1 [Sample No. C-2, (E)-metanicotine, reference compound]
[1]
  pEC50: 6.14
  Receptor Activation Emax: 79%
[2]
  pEC50: 5.94
  Dopamine Release Emax: 81%

## CNC(C)C/C=C/c1cccnc1 (centres unmarked) [Sample No. 2, (E)-N-methyl-5-(3-pyridinyl)-4-penten-2-amine]
Nicotinic receptors
  pKi: 7.09
[1]
  pEC50: 5.77
  Receptor Activation Emax: 35%
[2]
  pEC50: 4.67
  Dopamine Release Emax: 182%
[3]
  Ganglion Effect Emax: 6%

## CN1CCC[C@H]1c1cccnc1 [Sample No. C-1, (S)--(-)--nicotine, reference compound]
[1]
  Receptor Activation Emax: 87%
[2]
  pEC50: 7.00
  Dopamine Release Emax: 100%
[4]
  pEC50: 4.10
